# According to patent US20230183239A1, “ECTONUCLEOTIDE PYROPHOSPHATASE-PHOSPHODIESTERASE 1 (ENPP-1) INHIBITORS AND USES THEREOF” (AbbVie Inc., priority 2017, published 2023):
# Molecular target: T1, ENPP1 (Homo sapiens, UniProt P22413)
# T1 sequence (P22413 1-925): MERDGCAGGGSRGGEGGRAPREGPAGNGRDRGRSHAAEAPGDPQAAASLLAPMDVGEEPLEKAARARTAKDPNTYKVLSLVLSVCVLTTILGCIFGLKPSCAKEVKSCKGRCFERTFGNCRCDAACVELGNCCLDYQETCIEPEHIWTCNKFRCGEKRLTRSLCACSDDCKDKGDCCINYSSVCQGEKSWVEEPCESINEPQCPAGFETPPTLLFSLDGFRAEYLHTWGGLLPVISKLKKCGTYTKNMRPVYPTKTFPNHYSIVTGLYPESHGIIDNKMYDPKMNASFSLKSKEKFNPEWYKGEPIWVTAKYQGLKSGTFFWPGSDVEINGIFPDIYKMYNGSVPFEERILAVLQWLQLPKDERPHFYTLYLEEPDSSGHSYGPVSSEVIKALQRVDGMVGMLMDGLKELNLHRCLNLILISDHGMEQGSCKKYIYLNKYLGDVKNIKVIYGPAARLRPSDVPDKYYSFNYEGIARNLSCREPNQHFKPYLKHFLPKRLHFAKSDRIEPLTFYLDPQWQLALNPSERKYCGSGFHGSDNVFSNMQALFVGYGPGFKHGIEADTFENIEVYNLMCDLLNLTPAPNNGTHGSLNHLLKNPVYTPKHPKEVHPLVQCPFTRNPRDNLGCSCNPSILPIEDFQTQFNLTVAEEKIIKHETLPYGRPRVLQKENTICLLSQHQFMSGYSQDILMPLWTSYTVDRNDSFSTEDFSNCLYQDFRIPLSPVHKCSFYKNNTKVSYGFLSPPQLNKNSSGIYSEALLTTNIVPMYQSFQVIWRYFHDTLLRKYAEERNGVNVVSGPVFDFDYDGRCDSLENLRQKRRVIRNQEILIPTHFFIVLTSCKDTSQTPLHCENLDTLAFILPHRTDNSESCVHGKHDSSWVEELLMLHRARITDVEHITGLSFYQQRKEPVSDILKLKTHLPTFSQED
# Assay: Indirect quantitation of 2',3'-cGAMP hydrolysis (AMP-Glo Assay kit)
# Format: biochemical
# Details: cGAMP substrate; Ki from IC50 by Cheng-Prusoff; read-out: ENPP1 Inhibition -cGAMP: Ki
row,Ki [nM],SMILES
1,100 to 1000,"COc1ccc2c(-n3cc(CNS(N)(=O)=O)cn3)ccnc2c1 [Example 414, N-((1-(7-methoxyquinolin-4-yl)-1H-pyrazol-4-yl)methyl)sulfamide]"
2,< 100,"COc1ccc2c(Oc3ccc(N(C4CC4)S(N)(=O)=O)cc3)ccnc2c1 [Example 310, N-cyclopropyl-N-(4-((7-methoxyquinolin-4-yl)oxy)phenyl)sulfamide]"
3,100 to 1000,"COc1ccc2nccc(Oc3ccc(NS(N)(=O)=O)cc3)c2n1 [Example 346, N-(4-((6-methoxy-1,5-naphthyridin-4-yl)oxy)phenyl)sulfamide]"
4,> 1000,"COc1cnc2c(Oc3ccc(NS(N)(=O)=O)cc3)ccnc2c1 [Example 349, N-(4-((7-methoxy-1,5-naphthyridin-4-yl)oxy)phenyl) sulfamide]"
5,100 to 1000,"COc1cc2ncnc(N3CCC(CCNC(C)=O)CC3)c2cc1OC [Example 335, N-(2-(1-(6,7-dimethoxyquinazolin-4-yl)piperidin-4-yl)ethyl)acetamide]"
6,> 1000,"COc1cc2nccc(Oc3ccc(N)c(F)c3)c2cc1OC [Example 344, 4-((6,7-dimethoxyquinolin-4-yl)oxy)-2-fluoroaniline]"
7,100 to 1000,"COc1ccc2c(-c3ccc4c(c3)CN(S(N)(=O)=O)CC4)c(C(F)(F)F)cnc2c1 [Example 408, 7-(7-methoxy-3-(trifluoromethyl)quinolin-4-yl)-3,4-dihydroisoquinoline-2(1H)-sulfonamide]"
8,< 100,"COc1ccc2nccc(-c3ccc4c(c3)CN(S(N)(=O)=O)CC4)c2c1 [Example 358, 7-(6-methoxyquinolin-4-yl)-3,4-dihydroisoquinoline-2(1H)-sulfonamide]"
9,< 100,"COc1ccc2c(Oc3ccc(NS(N)(=O)=O)c(OC)c3)ccnc2n1 [Example 421, N-(2-methoxy-4-((7-methoxy-1,8-naphthyridin-4-yl)oxy)phenyl)sulfamide]"
10,100 to 1000,"COc1ccc2c(-c3ccc(CN(C4CC4)S(N)(=O)=O)cc3)ncnc2c1 [Example 324, N-cyclopropyl-N-(4-(7-methoxyquinazolin-4-yl)benzyl)sulfamide]"
11,> 1000,"COc1ccc2c(Oc3ccc(NS(N)(=O)=O)cc3OC)ccnc2c1 [Example 323, N-(3-methoxy-4-((7-methoxyquinolin-4-yl)oxy)phenyl)sulfamide]"
12,> 1000,"COc1ccc2c(N3CCc4ccc(NS(N)(=O)=O)cc43)ccnc2c1 [Example 391, N-(1-(7-methoxyquinolin-4-yl)indolin-6-yl)sulfamide]"
13,100 to 1000,"COc1cc2ncnc(N3CCC(CCNS(C)(=O)=O)CC3)c2cc1OC [Example 338, N-(2-(1-(6,7-dimethoxyquinazolin-4-yl)piperidin-4-yl)ethyl)methanesulfonamide]"

# Further lines, the molecule ahead of its results:
row,SMILES,Ki [nM]
1,"NS(=O)(=O)NCCC1CCN(c2ncnc3c[nH]nc23)CC1 [Example 27, N-(2-(1-(1H-pyrazolo[4,3-d]pyrimidin-7-yl)piperidin-4-yl)ethyl)sulfamide]",> 1000
2,"COc1cc2ncnc(NCc3ccc(S(=O)(=O)O)cc3)c2cc1OC [Example 161, 4-(((6,7-dimethoxyquinazolin-4-yl)amino)methyl)benzene sulfonic acid]",> 1000
3,"CNC(=O)c1cc(N2CCC(CCNS(N)(=O)=O)CC2)ncn1 [Example 130, N-methyl-6-(4-(2-(sulfamoylamino)ethyl)piperidin-1-yl)pyrimidine-4-carboxamide]",> 1000
4,"COc1cc2ncnc(N3CCC(CCNC(N)=O)CC3)c2cc1OC [Example 117, 1-(2-(1-(6,7-dimethoxyquinazolin-4-yl)piperidin-4-yl)ethyl)urea]",100 to 1000
5,"COc1cc2ncnc(N3CCC(CCNS(=O)(=O)C(F)(F)F)CC3)c2cc1OC [Example 146, N-(2-(1-(6,7-dimethoxyquinazolin-4-yl)piperidin-4-yl)ethyl)-1,1,1-trifluoromethanesulfonamide]",100 to 1000
6,"NC(=O)c1ccc2nccc(N3CCC(CCNS(N)(=O)=O)CC3)c2c1 [Example 192, 4-(4-(2-(sulfamoylamino)ethyl)piperidin-1-yl)quinoline-6-carboxamide]",> 1000
7,"COc1cc2c(-c3ccc4c(c3)CN(S(N)(=O)=O)CC4)c(C#N)cnc2cn1 [Example 257, 7-(3-cyano-6-methoxy-1,7-naphthyridin-4-yl)-3,4-dihydroisoquinoline-2(1H)-sulfonamide]",> 1000
8,"NS(=O)(=O)Nc1ccc(Oc2ccnc3cc(F)ccc23)cc1 [Example 298, N-(4-((7-fluoroquinolin-4-yl)oxy)phenyl)sulfamide]",> 1000
9,"COc1cc2ncnc(N3CC=C(c4ccc5c(c4)COB5O)CC3)c2cc1OC [Example 157, 5-(1-(6,7-dimethoxyquinazolin-4-yl)-1,2,3,6-tetrahydropyridin-4-yl)benzo[c][1,2] oxaborol-1(3H)-ol]",< 100
10,"COc1cc2ncnc(N3CCC(CCNS(=O)(=O)c4ccccc4)CC3)c2cc1OC [Example 116, N-(2-(1-(6,7-dimethoxyquinazolin-4-yl)piperidin-4-yl)ethyl)benzenesulfonamide]",> 1000
11,"COc1cc2nccc(N3CCC(CN4CCCNS4(=O)=O)CC3)c2cc1OC [Example 223, 2-((1-(6,7-dimethoxyquinolin-4-yl)piperidin-4-yl)methyl)-1,2,6-thiadiazinane 1,1-dioxide]",> 1000
12,"COc1ccc2c(-c3ccc4c(c3)CNCC4)c(C#N)cnc2c1 [Example 276, 7-methoxy-4-(1,2,3,4-tetrahydroisoquinolin-7-yl)quinoline-3-carbonitrile]",> 1000
13,"NS(=O)(=O)NCCC1CCN(c2ncnc3c2CCN(Cc2ccccc2)C3)CC1 [Example 233, N-(2-(1-(7-benzyl-5,6,7,8-tetrahydropyrido[3,4-d]pyrimidin-4-yl)piperidin-4-yl)ethyl)sulfamide]",> 1000
14,"COc1cc2ncnc(N3CCC(Cn4c(N)nc5ccccc54)CC3)c2cc1OC [Example 252, 1-((1-(6,7-dimethoxyquinazolin-4-yl)piperidin-4-yl)methyl)-1H-benzo[d]imidazol-2-amine]",> 1000
15,"COc1cc2nc(-c3ccccn3)nc(N3CCC(CCNS(N)(=O)=O)CC3)c2cc1OC [Example 4, N-(2-(1-(6,7-dimethoxy-2-(pyridin-2-yl)quinazolin-4-yl)piperidin-4-yl)ethyl)sulfamide]",> 1000
16,"COc1cc2ncc(Nc3ccc(NS(N)(=O)=O)cc3)nc2cc1OC [Example 286, N-(4-((6,7-dimethoxyquinoxalin-2-yl)amino)phenyl)sulfamide]",> 1000
17,"NS(=O)(=O)NCCC1CCN(c2ncnc3cc4c(cc23)OCO4)CC1 [Example 170, N-(2-(1-([1,3]dioxolo[4,5-g]quinazolin-8-yl)piperidin-4-yl)ethyl)sulfamide]",> 1000
18,"Cn1cnc2ncnc(-c3ccc(CNS(N)(=O)=O)cc3)c21 [Example 128, N-(4-(7-methyl-7H-purin-6-yl)benzyl)sulfamide]",100 to 1000
19,"Cc1ncnc(N2CCC(CCNS(N)(=O)=O)CC2)c1C [Example 15, N-(2-(1-(5,6-dimethylpyrimidin-4-yl)piperidin-4-yl)ethyl)sulfamide]",> 1000
20,"COc1cc2ncc(C#N)c(Oc3ccc(S(N)(=O)=O)cc3)c2cc1F [Example 76, 4-((3-cyano-6-fluoro-7-methoxyquinolin-4-yl)oxy)benzenesulfonamide]",< 100
21,"COc1cc2ncnc(-c3ccc(NS(N)(=O)=O)cc3)c2cc1OC [Example 113, N-(4-(6,7-dimethoxyquinazolin-4-yl)phenyl)sulfamide]",100 to 1000
22,"COc1cc2ncnc(OCc3ccc(NS(N)(=O)=O)cc3)c2cc1OC [Example 179, N-(4-(((6,7-dimethoxyquinazolin-4-yl)oxy)methyl)phenyl)sulfamide]",> 1000
23,"COc1cc2ncnc(Nc3ccc(N4CCNS4(=O)=O)cc3)c2cc1OC [Example 243, 2-(4-((6,7-dimethoxyquinazolin-4-yl)amino)phenyl)-1,2,5-thiadiazolidine 1,1-dioxide]",> 1000
24,"COc1ccc(C(=O)N2CCC(CCNS(N)(=O)=O)CC2)cc1OC [Example 47, N (2-(1-(3,4-dimethoxybenzoyl)piperidin-4-yl)ethyl)sulfamide]",> 1000
25,"CNC(=O)c1ccc2c(N3CCC(CCNS(N)(=O)=O)CC3)ncnc2c1 [Example 163, N-methyl-4-(4-(2-(sulfamoylamino)ethyl)piperidin-1-yl)quinazoline-7-carboxamide]",> 1000
26,"CCNS(=O)(=O)NCCC1CCN(c2ncnc3cc(OC)c(OC)cc23)CC1 [Example 139, 2-(1-(6,7-dimethoxyquinazolin-4-yl)piperidin-4-yl)ethan-1-amino(N-ethyl)sulfonamide]",> 1000
27,"NS(=O)(=O)NCCC1CCN(c2ncnc3cc(OC(F)(F)F)ccc23)CC1 [Example 209, N-(2-(1-(7-(trifluoromethoxy)quinazolin-4-yl)piperidin-4-yl)ethyl)sulfamide]",> 1000
